Read-outs that look alike come from different tables or passages of the source.
Molecular target: T1, REV-ERBα LBD (human; residues 281-614 Δ324-422) (Homo sapiens, UniProt P20393, DEL324-422)
T1 construct: 6×Histag-REV-ERBα LBD (human; residues 281-614 Δ324-422); made in house; host or cells: Escherichia coli
Test: TR-FRET corepressor interaction assay (REV-ERBα LBD, FITC-SMRT peptide)
Format: biochemical
Summary of the method: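 Compound serial dilutions (in DMSO, triplicate) incubated 2 h at 4 °C; Tb donor excited at 340 nm, emission read at 495 nm and FITC acceptor at 520 nm. TR-FRET ratio (520/495 nm) plotted against ligand concentration and fitted to a sigmoidal dose-response curve.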

[1] = FITC-SMRT peptide, read-out: REVERBα agonism (EC50 class, FRET assay)
[2] = Table 2, read-out: REVERBα agonism (EC50 class, FRET assay)

T1 sequence (P20393 with tags, fused parts or gaps DEL324-422): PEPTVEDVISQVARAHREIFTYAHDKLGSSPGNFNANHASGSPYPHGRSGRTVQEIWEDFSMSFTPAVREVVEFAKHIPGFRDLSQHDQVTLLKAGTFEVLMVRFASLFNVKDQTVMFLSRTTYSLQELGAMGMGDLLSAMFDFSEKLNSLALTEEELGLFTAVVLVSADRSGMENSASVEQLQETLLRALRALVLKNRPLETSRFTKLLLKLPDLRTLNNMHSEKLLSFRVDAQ
T1 sequence (Q9Y618 2335-2356 partner limits assumed): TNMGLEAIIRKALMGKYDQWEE

Structure (SMILES)	EC50 [1] [nM]	EC50 [2] [nM]
CC(C)(C)Cn1cc([C@H](NS(=O)(=O)C2CCCC2)C(F)(F)F)c2cc(F)c(-c3ccccc3C(F)(F)F)cc21 [Example 372, (S)—N-(2,2,2-trifluoro-1-(5-fluoro-1-neopentyl-6-(2-(trifluoromethyl)phenyl)-1H-indol-3-yl)ethyl)cyclopentanesulfonamide]		500 to 3000
CC(NS(=O)(=O)N(C)C)c1cn(C(=O)C(C)(C)C)c2cc(-c3ccncc3)ccc12 (stereo not shown) [Example 197, 1-(3-{1-[(dimethylsulfamoyl)amino]ethyl}-6-(pyridin-4-yl)-1H-indol-1-yl)-2,2-dimethylpropan-1-one]		< 500
CC(C)Cn1cc(CCNS(=O)(=O)N(C)C)c2ccc(O)cc21 [Example 116, N-{2-[6-hydroxy-1-(2-methylpropyl)-1H-indol-3-yl]ethyl}-N,N-dimethylsulfuric diamide]		> 3000
CC(C)(C)Cn1cc([C@H](NS(=O)(=O)C2CC(F)(F)C2)C(F)(F)F)c2ccc(-c3ccccc3C(F)(F)F)cc21 [Example 419, (S)-3,3-difluoro-N-(2,2,2-trifluoro-1-(1-neopentyl-6-(2-(trifluoromethyl)phenyl)-1H-indol-3-yl)ethyl)cyclobutane-1-sulfonamide]		500 to 3000
CC(C)Cn1cc(CCNS(=O)(=O)N(C)C)c2cc(Br)ccc21 [Example 135, ({2-[5-bromo-1-(2-methylpropyl)-1H-indol-3-yl]ethyl}sulfamoyl)dimethylamine]		< 500
CC(C)(C)Cn1cc([C@@H](CF)NS(=O)(=O)C2CCC2)c2cc(F)c(-c3ccccc3C(F)(F)F)cc21 [Example 436, (S)—N-(2-fluoro-1-(5-fluoro-1-neopentyl-6-(2-(trifluoromethyl)phenyl)-1H-indol-3-yl)ethyl)cyclobutanesulfonamide]	< 500	

Next, values leading:

EC50 [1] [nM]	EC50 [2] [nM]	Structure (SMILES)
< 500		CC(C)(C)Cn1cc([C@H](NS(=O)(=O)C2CCC2)C(F)(F)F)c2ccc(-c3ccc(F)cc3C(F)(F)F)cc21 [Example 497, (S)—N-(2,2,2-trifluoro-1-(6-(4-fluoro-2-(trifluoromethyl)phenyl)-1-neopentyl-1H-indol-3-yl)ethyl)cyclobutanesulfonamide]
	< 500	CC(C)(C)Cc1cn(CCNS(=O)(=O)C2CCC2)c2ccc(-c3ccc(C(F)(F)F)cc3C(F)(F)F)cc12 [Example 418, N-(2-(5-(2,4-bis(trifluoromethyl)phenyl)-3-neopentyl-1H-indol-1-yl)ethyl)cyclobutanesulfonamide]
	500 to 3000	Cc1cn[nH]c1-c1cc2c(cc1F)c([C@H](NS(=O)(=O)C1CC1)C(F)(F)F)cn2CC(C)(C)C [Example 381, N-[(1S)-1-[1-(2,2-dimethylpropyl)-5-fluoro-6-(4-methyl-1H-pyrazol-5-yl)indol-3-yl]-2,2,2-trifluoro-ethyl]cyclopropanesulfonamide]
	500 to 3000	CN(C)S(=O)(=O)NCCc1cn(CC(C)(C)C)c2cc(Br)ccc12 [Example 165, ({2-[6-bromo-1-(2,2-dimethylpropyl)-1H-indol-3-yl]ethyl}sulfamoyl)dimethylamine]
500 to 3000		CC(C)(C)Cn1cc([C@H](NS(=O)(=O)C2CC2)C(F)(F)F)c2cc(C(F)(F)F)c(-c3ccncc3)cc21 [Example 458, (S)—N-(2,2,2-trifluoro-1-(1-neopentyl-6-(pyridin-4-yl)-5-(trifluoromethyl)-1H-indol-3-yl)ethyl)cyclopropanesulfonamide]
	500 to 3000	CC(C)(C)Cc1cn(CCNS(=O)(=O)C2CC2)c2ccc(-c3ccc4cc(O)ccc4c3)cc12 [Example 211, N-(2-(5-(6-hydroxynaphthalen-2-yl)-3-neopentyl-1H-indol-1-yl)ethyl)cyclopropane sulfonamide]
	< 500	CC(C)Cn1cc(CCNS(=O)(=O)N(C)C)c2ccc(C#N)cc21 [Compound 96, 3-{2-[(dimethylsulfamoyl)amino]ethyl}-1-(2-methylpropyl)-1H-indole-6-carbonitrile]

From patent US20230339886A1 (University of Florida Research Foundation, Incorporated, priority 2020, published 2023)
